A short description of data set [1]: Preliminary dose-finding studies, 3.0 μg neutral pH T3 intravenous vs intratracheal. In kind it is in vivo, rats.
Data set [2] can be described thus: Toxicity phase: intratracheal instillation once daily for five consecutive days (GLP safety study). Type of data set: in vivo, Sprague-Dawley rats. As for the experimental part:
Safety studies are described in Example 3, below. In a safety study conducted in compliance with Good Laboratory Practices (GLPs), 0.3 mL (300 μl) was administered to rats weighing 250-350 grams via intratracheal instillation daily for five consecutive days. […] The calculated dose based on lung weight was about 1.57 μg/g wet lung weight.
This study was conducted using both male and female Sprague-Dawley rats (Envigo, Huntingdon, United Kingdom). Evaluation of the safety of the tracheal route of instillation for liothyronine sodium injection in human clinical trials can be accomplished in this species at appropriate dose levels. Furthermore, responses to thyroid hormone in rats are similar to responses in humans, and the choice of the rat model is based in large part on pharmacologic data from studies of thyroid hormone and associated receptors and physiological responses in rat lung. The University of Minnesota is accredited by the Association for the Assessment and Accreditation of Laboratory Animal Care, International (AAALAC) and registered with the United States Department of Agriculture to conduct research in laboratory animals. Animal studies conformed to NIH guidelines (Guide for the Care and Use of Laboratory Animals. NIH publication No. 86-23. Revised 1985). The protocol was reviewed and approved, as applicable, by the Institutional Animal Care and Use Committee (IACUC) at the University of Minnesota for compliance with regulations prior to study initiation or implementation of amended activities.
Sixty animals (plus two spare animals/sex/group) were anesthetized and dosed via intratracheal instillation of test or control materials for five consecutive days. On the day after the last dose a terminal blood collection was performed for clinical pathology, after which animals were euthanized and a gross examination of all organs was performed by a board certified veterinary pathologist. Select tissues were collected for histopathology. […] Terminal blood collection was performed at two designated time points per animal up to 24 hours after administration for toxicokinetic evaluation. TK animals were euthanized without further evaluation after the final blood collection. All animals were acclimated for a minimum of seven days prior to the dosing procedure. Animals underwent baseline observations and examinations prior to the initiation of the study, and clinical observations and body weight monitoring were performed throughout the in-life portion of the study. All animals received the same dose volume (0.3 mL) of either test or control materials. This maximum feasible dose (MFD) is constrained by the maximum volume that can be safely and reproducibly (over five days) instilled into lungs of rats weighing 250 g to 350 g, which was determined in preliminary toxicology studies to be 0.3 mL. Actual doses delivered are reported as both μg/kg body weight and μg/gm wet lung weight. The toxicity phase animals were 72-135 days of age at the time of initial dosing. Males weighed between 256.52 g and 307.50 g with a mean±standard deviation of 286.74±11.77 g, and females weighed between 250.46 g and 299.01 g with a mean±standard deviation of 260.64±10.34 g. The TK phase animals were 68-144 days of age at the time of initial dosing. Males weighed between 261.23 g and 316.19 g; females weighed between 250.06 g and 280.32 g.
Test and control materials were drawn into dosing syringes using aseptic technique. Using a 18G needle, 0.5 mL of air was drawn into a 1 cc syringe followed by 0.3 mL (300 μL) of the solutions. Animals were anesthetized with a combination of ketamine, 40 mg/kg to 200 mg/kg, and xylazine, 1 mg/kg to 7 mg/kg intraperitoneally (IP), to effect. The dose was adjusted daily, as needed, based on individual animal response and recovery. Depth of anesthesia was evaluated by toe pinch, and eye lubricant was applied to the eyes. […]

A further data set has as its system HO-1. Briefly: Western blot of HO-1 in RLE-6TN cells under hyperoxia. Type of data set: cell-based, rat. Conditions: T3 10^−6M. As for the experimental part: (§1) FIG. 10. HO-1 Upregulation is required for T3-increased RLE-6TN cell survival in hyperoxia. […] The cells were then collected for Western Blot analysis. (B) The cells were incubated in 21% O2 and 5% CO2 for 72 hours in the present of HO-1 inhibitor Tin Protoporphyrin IX(10^-6M) tinT3 (10^−6M). […] Cell viability is assessed with trypan blue. The number of viable cells under specific conditions is presented as a percentage of the cell number related to hyperoxia alone. Data are mean±s.d. of three independent experiments with *=P<0.05; **=P<0.01.
(§2) The cells were lysed in lysis buffer containing 20 mM Tris·HCl (pH 7.5), 150 mM NaCl, 1 mM EDTA, 1 mM EGTA, 1% (vol/vol) Triton X-100 with protease inhibitors (1 mM PMSF, 2 μg/ml pepstatin, and 10 μg/ml each of aprotinin and leupeptin), and phosphatase inhibitors (2.5 mM sodium pyrophosphate, 1 mM β-glycerophosphate, and 1 mM Na3VO4). The lysate was drawn 10 times through a 25-gauge needle on ice for further lysis and then was centrifuged at 13,000 rpm for 15 minutes at 4° C. The supernatant was collected, and the protein concentrations were determined by use of the BCA protein assay kit (Sigma-Aldrich, St. Louis, Mo.). Immediately after this step, equal amounts of protein were subjected to Western blotting analysis.
In general terms: A western blot detects proteins with antibodies after separation by electrophoresis.

The conditions of data set [3]: single oral dose of 50 micrograms; cited from earlier work.
Data set [4] deals with rat lung mucosa and airspaces. Conditions: in vivo.
Method: (§4) Therefore, the liothyronine sodium and the vehicle were adjusted to neutral pH (6.0-8.0) with sterile 1.0 N HCl (Sigma-Aldrich, St. Louis, Mo.) added aseptically in a biosafety cabinet prior to intratracheal instillation into animals. Using aseptic technique, vials of liothyronine sodium were opened and the entire contents were transferred into sterile 1.5 mL Eppendorf tubes. 80-90 μL of 1.0 N HCl was added to the tube and gently vortexed, and the pH was measured using pH test strips (pH 4.5 to 10.0, Ricca Chemical Co., Arlington, Tex.). Additional HCl was titrated in gradually, as needed, until the pH was in the desired range. […] This solution was stored at 4° C. and used for up to 26 hours after pH adjustment procedure. […] The vehicle was also adjusted to neutral pH (6.0-8.0) with 1.0 N HCl as described above. Using aseptic technique the vehicle was filter sterilized and aliquoted into 21 sterile disposable tubes (5 mL each) and stored at 4° C., and a new tube was opened for each day of use. Normal Saline (0.9% Sodium Chloride Injection USP, B. Braun Medical, Inc., Bethlehem, Pa.), was stored at room temperature. A new package was opened for each day of use.
Data set [5] has as its system hyperoxia-induced lung injury. Briefly: Hyperoxia-induced lung injury in rats: lung histology and MPO immunostaining. Type of data set: in vivo, Sprague Dawley rats. As for the experimental part: FIG. 17. […] Immunostaining was performed with primary: anti-MPO antibody. Black dots represent MPO-positive cells.
FIG. 18. […] (A) Control: room air; (B) Hyperoxia; (C) Hyperoxia+T3.
(§3) All experimental protocols for animal treatments were approved by the University of Minnesota Institutional Animal Care and Use Committee. […] The room-air control rats were kept in the University animal housing facility. At the end of hyperoxic exposure, rats were sacrificed by intraperitoneal pentobarbital injection, and the lungs were harvested; the right lobes were allocated for histopathology, measurement of lung tissue myeloperoxidase (MPO) activity and wet-to-dry weight ratio. The left lobes underwent bronchoalveolar lavage (BAL) to determine BAL protein concentrations and differential cell counts.
Lung tissue was removed and inflation fixed at 20 cm water pressure in 4% paraformaldehyde, paraffin embedded, cut as 5 micron sections and mounted onto poly-L-lysine slides. Sections were deparaffinized in xylene, rehydrated through a graded alcohol series in methanol, and placed in a 98° C. water bath for 30 minutes in citrate buffer (pH 6.0) for antigen retrieval. After quenching with 0.3% hydrogen peroxide in PBS, sections were incubated in normal serum for 30 minutes and for 15 minutes each with Avidin/Biotin Blocking Kit (Vector Laboratories, Inc., Burlingame, Calif.). […]

The test system of data set [6] is rat lung mucosa and airspaces. As to the kind of experiment: Preliminary studies: intratracheal instillation of liothyronine sodium without pH adjustment. Particulars: rats, pH of >10.0 as supplied commercially.
Method: as §4
The test system of data set [7] is hyperoxia-induced lung injury. Briefly: Hyperoxia-induced lung injury in rats: bronchoalveolar lavage protein and cell number. Type of data set: in vivo, Sprague Dawley rats. Conditions: ip T3.
Text: as §3
Bronchoalveolar lavage (BAL) of the left lung was performed using a modification of a method previously described (Pace et al., Exp Lung Res 35:380-398, 2009). Briefly, 4 mls of ice-chilled 1× PBS (pH 7.4) were instilled into the left lung, withdrawn, and re-instilled two subsequent times prior to analysis of the lavage fluid. The retrieved BAL fluid was centrifuged at 1500 rpm for 10 minutes to remove cells and debris. The cell pellet was resuspended in 1 ml of 1× PBS (pH 7.4) and total cell number was counted using a hemocytometer. BAL cytospin preparations were stained using the Hema3 stain kit (Thermo Fisher Scientific, Inc., Waltham, Mass.) to identify the nucleated cells. The protein concentration was determined on the supernatants of BAL fluid using a standard BCA assay (Sigma-Aldrich, St. Louis, Mo.).

Another data set relates to Nrf2. Briefly: Western blot of Nrf2 (total cellular and nuclear) in RLE-6TN cells under hyperoxia. Type of data set: cell-based, rat. Particulars: 24 hours hyperoxia, T3 10^−6 M.
Text: FIG. 9. […] The cells were then collected for Western Blotting analysis. (A) Cellular total protein of Nrf2. (B) Nuclear Nrf2.
FIG. 12. T3-induced increase in Nrf2 and HO-1 protein via PI3K in hyperoxia. (A) Western Blot and densitometry data for total Nrf2. (B) Western Blot and densitometry data for cytoplasmic Nrf2. (C) Western Blot and densitometry data for nuclear Nrf2.
Nuclei were extracted with NE-PER nuclear and cytoplasmic extraction reagents kit (Thermo Fisher Scientific, Inc., Waltham, Mass.) following the manufacturer's instruction.
as §2

For data set [8], the system named is myeloperoxidase (MPO) activity in lung tissue. As to the kind of experiment: Hyperoxia-induced lung injury in rats: lung myeloperoxidase (MPO) assay. Type of data set: in vivo, Sprague Dawley rats. Particulars: 60 hours hyperoxia, ip T3.
Text: as §3
To quantify the neutrophil activity in the lung, MPO activity was assayed as previously described (Abraham et al., J Immunol 165:2950-2954, 2000). Lung tissues without prior lavage were frozen in liquid nitrogen, weighed, and stored at −86° C. The lungs were homogenized for 30 seconds in 1.5 ml 20 mM potassium phosphate, pH 7.4, and centrifuged at 4° C. for 30 minutes at 40,000×g. The pellet was resuspended in 1.5 ml 50 mM potassium phosphate, pH 6.0, containing 0.5% hexadecyltrimethylammonium bromide, sonicated for 90 seconds, incubated at 60° C. for two hours, and centrifuged at 14,000 rpm for 30 minutes at 4° C. The supernatant was assayed for peroxidase activity corrected to lung weight. MPO was expressed as activity per gram of lung tissue.

Another data set relates to Akt. Briefly: Akt phosphorylation (Ser473) in RLE-6TN cells under hyperoxia. In kind it is cell-based, rat. Conditions: hyperoxia 24 hours, T3 added for 20 minutes, vs room air control and hyperoxia alone. The protocol: as §2
In the next data set the test system is RLE-6TN cells. Briefly: RLE-6TN cell survival and recovery under hyperoxia, viable cells by trypan blue exclusion. In kind it is cell-based, rat. The protocol: FIG. 7. […] The cells were cultured in DMEM/F12 with 10% FBS in 21% O2 and 5% CO2 overnight. […] The viable cells are counted immediately after 72-hour hyperoxia exposure. Cell viability is assessed with trypan blue. The amount of viable cells under specific conditions is presented as a percentage of the cell number from hyperoxia alone. Data are mean±s.d. of four independent experiments with *=P<0.05; **=P<0.01.
FIG. 8. […] In both (A) and (B), the number of viable cells under specific conditions is presented as a percentage of the cell number related to hyperoxia alone in the same experiment. Data are mean±s.d. of four independent experiments with *=P<0.05; **=P<0.01.
as §1
FIG. 11. PI3K inhibitor wortmannin blocked T3-induced cell survival in hyperoxia. […] Cell viability is assessed with trypan blue. The number of viable cells under specific conditions is presented as a percentage of the cell number related to hyperoxia alone. Data are mean±s.d. of four independent experiments with *=P<0.05; **=P<0.01.
At the end of the hyperoxia exposure period, the viable cells were counted by trypan blue dye exclusion.

As to `N[C@@H](Cc1cc(I)c(Oc2ccc(O)c(I)c2)c(I)c1)C(=O)O` [T3, triiodothyronine], the “acute effects on physiologic parameters (respiratory rate, O2 saturation, heart rate)” value in [1] (five days of intratracheal delivery of 3.0 μg neutral pH T3) and in data set [1] (single intravenous delivery of 3.0 μg neutral pH T3) was “no acute effects” throughout. Further, the “body weight at terminal euthanasia vs pre-dose” value in data set [2] (T3 females, toxicity phase) was “weighed slightly less than their pre-dose weight”. In addition, the “animals that died after dose administration” value in [2] (T3 test group, toxicity phase, judged not test article related) was “two”. The clinical observations result in data set [2] (during the course of the study) is recorded as “No adverse T3 related clinical observations”. Further, the “regain of body weight” value in data set [2] (female rats, toxicity phase, vs males or control groups) was “did not regain body weight at the same rate”. For the same molecule, the hematology parameters entry in [2] (male rats) is on record as “no statistical or clinically significant changes”. In addition, the “treatment-related macroscopic or microscopic findings in end organs” value in [2] (toxicity phase rats) is listed as “no macroscopic or microscopic findings”. In addition, the “organ weight of the lungs” value in [2] (toxicity phase rats, five days intratracheal) is recorded as “no differences”. Further, in the data set on HO-1, the “total cellular protein of HO-1” value is on record as “significantly enhanced”. In data set [3], the mean half-life was 22.5 h. Besides, in data set [4], the “toxicity to rat lung mucosa and airspaces” value is reported as “extremely toxic”. In [5] (95% oxygen 60 hours, T3-injected), the “MPO-positive cells in the lungs vs hyperoxia without T3” value is “fewer MPO-positive cells”. In addition, in data set [5] (60 hours hyperoxia, systemic T3 supplementation), the “lung morphology (histopathology)” value is listed as “virtually normal lung morphology”. For the same molecule, in data set [6], the “tolerance of intratracheal instillation” value is “do not tolerate”. Further, the “hyperoxic increase in BALF protein concentration” value in data set [7] (48 hour hyperoxia) and in data set [7] (60 hour hyperoxia) was “attenuated significantly” each time. Further, the “BALF cell numbers vs hyperoxia alone” value in data set [7] (48 hours hyperoxia) and in data set [7] (60 hours hyperoxia) was “significantly reduced” throughout. The “nuclear Nrf-2 protein expression” value with Nrf2 was “significantly increased”. The “total cellular Nrf-2 protein expression” value in the data set with Nrf2 is “significantly increased”. Moreover, the “hyperoxia-induced lung MPO activity” value in data set [8] is recorded as “significantly reduced”. Moreover, in the data set on Akt, the “phosphorylation of Akt at Ser473” value is on record as “augmented”.

Consider `NC(Cc1ccc(Oc2cc(I)c(O)c(I)c2)c(I)c1)C(=O)O` (centres unmarked) [rT3], for which the “cell survival under hyperoxia” value with RLE-6TN cells (90% oxygen 72 hours, 10^−6M) was “no role in cell survival”.

As to `C=Cc1c2[n-]c(c1C)/C=c1\[n-]/c(c(C)c1C=C)=C\c1[n-]c(c(CCC(=O)O)c1C)C=c1[n-]/c(c(C)c1CCC(=O)O)=C\2.[Sn+4]` [Tin protoporphyrin, Tin Protoporphyrin IX], the “AT2 cell number in room air” value in the data set on RLE-6TN cells (21% O2 72 hours, 10^-6M) is listed as “no effect”. Also, the “effect on T3-caused increase in cell survival in hyperoxia” value in the data set with RLE-6TN cells (90% O2 72 hours, with T3 10^−6M, inhibitor 10^-6M) is given as “blocked”.

The values above are taken from patent US11458094B2, “Compositions and methods for treating pulmonary edema or lung inflammation” (priority 2018, dated 2022).
